In PMC7790557, “Pleiotropic Properties of Amphiphilic Dihydropyridines, Dihydropyridones, and Aminovinylcarbonyl Compounds” (Oxidative Medicine and Cellular Longevity, 2020):
Like-named read-outs stand apart in the source and are kept apart here.

Columns and labels:
[1] = tested on: MH-22A (mouse hepatoma); experiment: Cytotoxicity, MTT assay, MH-22A; format: cell-based; settings: 72 h exposure; for IC50: Mus musculus, read-out: MH-22A IC50 (MTT)
From the text: (§1) Reduction takes place only when mitochondrial reductase enzymes are active, and therefore, conversion is directly related to the number of viable cells which can be quantified by the absorbance of the solution (between λ = 500 and 600 nm) using a spectrophotometer.

[2] = tested on: NIH3T3 (mouse embryonic fibroblast); experiment: Basal cytotoxicity test, Neutral Red Uptake (NRU) assay; settings: for IC50: Mus musculus, NIH3T3, 24 h
[3] = tested on: HT-1080 (human lung fibrosarcoma); experiment: Cytotoxicity, MTT assay, HT-1080; format: cell-based; settings: 72 h exposure; for IC50: Homo sapiens, HT-1080, read-out: HT-1080 IC50 (MTT)
From the text: as §1

[4] = tested on: NIH3T3; experiment: in vitro; settings: for LD50 (calculated, NIH3T3): mouse
From the text: Data from the in vitro tests were used for estimating the starting dose for acute oral systemic toxicity tests in the rodent. The in vivo starting dose is an estimated LD50 value calculated by inserting the in vitroIC50 value into a regression formula: log LD50 (mM/kg) = 0.439 log IC50 (mM) + 0.621 [23–25]. […] Using an alternative in vitro method allows the comparison between possibly toxic new compounds and selecting compounds for further study vastly reducing the number of animal experiments.
Additionally, the compound influence on “normal” mouse fibroblasts (NIH3T3) was estimated for the studies of structure-activity relationships and exploration of the effect of substituents.

[5] = tested on: HT-1080 (human lung fibrosarcoma); experiment: Cytotoxicity, crystal violet (CV) assay, HT-1080; settings: Homo sapiens, HT-1080, 72 h, read-out: HT-1080 IC50 (CV)
Description: IC50 is the compound concentration (μg/ml) at which 50% of the cells die. […] CV staining can be used to quantify the total DNA of the remaining population and thus is used to determine the number of live cells based on the concentration of the dye which remains after staining.
Tumor cell lines HT-1080 (human connective tissue fibrosarcoma, ATCC® CCL-121™) and MH-22A (mouse hepatocarcinoma, ECACC, cat. Nr. 96121721) were used.
HT-1080 and MH-22A cells were seeded in 96-well plates in Dulbecco's modified Eagle's (DMEM) medium containing 10% fetal bovine serum and 4 mM L-glutamine, without antibiotics, and cultivated for 72 h by exposure to different concentrations of compounds. Cell viability was measured using 3-(4,5-dimethylthiazol-2-yl)-2,5-diphenyltetrazolinium bromide (MTT). In brief, after incubating with compounds, the culture medium was removed and fresh medium with 0.2 mg/ml MTT was added in each well of the plate. After incubation (3 h, 37°C, 5% CO2), the medium with MTT was removed, and 200 μl DMSO was added at once to each sample. The samples were tested at 540 nm on a Tecan Infinite M1000 multiplate reader. The IC50 was calculated using the program GraphPad Prism® 3.0.
For the CV assay, cells were stained with 0.05% crystal violet (Sigma-Aldrich) in 30% methanol for 20 minutes at room temperature. After incubation, the staining solution was removed. The cells were washed 4 times with water. For dye solubilization, 200 μl of a solubilizing solution (0.1 M citrate buffer, pH 4.2 in 50% ethanol; 1 : 1 v/v) was added. The absorbance of the solution was measured using a Tecan Infinite M1000 multiplate spectrophotometer at a wavelength of 570 nm [21].

[6] = tested on: MH-22A (mouse hepatoma); experiment: Cytotoxicity, crystal violet (CV) assay, MH-22A; format: cell-based; settings: Mus musculus, 72 h exposure, read-out: MH-22A IC50 (CV)
Description: After incubation, the staining solution was removed. The cells were washed 4 times with water.

[7] = read-out: NIH3T3 IC50 (NR), Table 2, 24 h exposure

Row | Compound | IC50 ([1]; Table 1) | IC50 ([2]; read-out: NIH3T3 IC50 (NR)) | IC50 ([3]; Table 1) | IC50 [5] | IC50 ([1]; Table 2) | IC50 ([6]; Table 2) | IC50 [2, 7] | IC50 ([3]; Table 2) | other results
1 | 1,1'-((4-(2-(Difluoromethoxy)phenyl)-3,5-bis(methoxycarbonyl)-1,4-dihydropyridine-2,6-diyl)bis(methylene))bis(1-methylpiperidin-1-ium) diperchlorate [compound 9] | – | – | – | – | – | – | – | – | MH-22A IC50 (MTT) ([1]; Table 1): ∗ (∗: not detected); NIH3T3 IC50 (NR) ([2]; Table 1, 24 h exposure): ∗ (∗: not detected); HT-1080 IC50 (MTT) ([3]; Table 1): ∗ (∗: not detected)
2 | CCOC(=O)C1=C(C[n+]2ccc(N)cc2)NC(C[n+]2ccc(N)cc2)=C(C(=O)OCC)C1c1ccccc1.[Br-].[Br-] [compound 3, 1,1'-((3,5-Bis(ethoxycarbonyl)-4-phenyl-1,4-dihydropyridine-2,6-diyl)bis(methylene))-bis(4-aminopyridin-1-ium) dibromide] | > 740 µg/mL | > 1000 µg/mL | 441 ± 46 µg/mL | – | – | – | – | – | LD50 (calculated, NIH3T3) [4]: > 2000 mg/kg
3 | CCOC(=O)C1=C(C[n+]2ccc(N(C)C)cc2)NC(C[n+]2ccc(N(C)C)cc2)=C(C(=O)OCC)C1c1ccccc1.[Br-].[Br-] [compound 4, 1,1'-((3,5-Bis(ethoxycarbonyl)-4-phenyl-1,4-dihydropyridine-2,6-diyl)bis(methylene))-bis(4-(dimethylamino)pyridin-1-ium) dibromide] | 608 ± 49 µg/mL | > 1000 µg/mL | 324 ± 29 µg/mL | – | – | – | – | – | LD50 (calculated, NIH3T3) [4]: > 2000 mg/kg
4 | CCOC(=O)C1=C(C[n+]2cccc(C)c2)NC(C[n+]2cccc(C)c2)=C(C(=O)OCC)C1c1ccccc1.[Br-].[Br-] [compound 5, 1,1'-((3,5-Bis(ethoxycarbonyl)-4-phenyl-1,4-dihydropyridine-2,6-diyl)bis(methylene))-bis(3-methylpyridin-1-ium) dibromide] | > 100 µg/mL | > 1000 µg/mL | > 740 µg/mL | – | – | – | – | – | LD50 (calculated, NIH3T3) [4]: > 2000 mg/kg
5 | CCCCCCCCCCCCOC(=O)C1=C(C[n+]2ccccc2)NC(C[n+]2ccccc2)=C(C(=O)OCCCCCCCCCCCC)C1c1ccc(O)cc1.[Br-].[Br-] [compound 18, 1,1'-((3,5-Bis((dodecyloxy)carbonyl)-4-(4-hydroxyphenyl)-1,4-dihydropyridine-2,6-diyl)bis(methylene))bis(pyridin-1-ium) dibromide] | 16 ± 2 µg/mL | 95 ± 7 µg/mL | 10 ± 2 µg/mL | 4.3 ± 0.6 µg/mL | – | – | – | – | IC50 ([6]; Table 1): 3.4 ± 0.6 µg/mL
6 | CCCCCCCCCCCCOC(=O)C1=C(C[n+]2ccc(C)cc2)NC(C[n+]2ccc(C)cc2)=C(C(=O)OCCCCCCCCCCCC)C1c1ccc(O)cc1.[Br-].[Br-] [compound 19, 1,1'-((3,5-Bis((dodecyloxy)carbonyl)-4-(4-hydroxyphenyl)-1,4-dihydropyridine-2,6-diyl)bis(methylene))bis(4-methylpyridin-1-ium) dibromide] | 30 ± 8 µg/mL | 44 ± 11 µg/mL | 22 ± 5 µg/mL | 32 ± 8 µg/mL | – | – | – | – | IC50 ([6]; Table 1): 21 ± 3 µg/mL
7 | CCCCCCCCCCCCOC(=O)C1=C(C[N+](C)(C)CCCCCCCCCCCC)NC(C[N+](C)(C)CCCCCCCCCCCC)=C(C(=O)OCCCCCCCCCCCC)C1c1ccccc1.[O-][Cl+3]([O-])([O-])[O-].[O-][Cl+3]([O-])([O-])[O-] [compound 20, N,N'-((3,5-bis((dodecyloxy)carbonyl)-4-phenyl-1,4-dihydropyridine-2,6-diyl)bis(methylene))bis(N,N-dimethyldodecan-1-aminium) diperchlorate] | 10 ± 2 µg/mL | – | 3 ± 0.4 µg/mL | 3 ± 0.3 µg/mL | – | – | – | – | IC50 ([6]; Table 1): 10 ± 2 µg/mL; IC50 ([2]; read-out: NIH3T3 IC50 (NR), Table 1, 24 h exposure): 19 ± 6 µg/mL
8 | O=C1CC(c2ccccc2)C(C(=O)OCCCCC(F)(F)C(F)(F)C(F)(F)C(F)(F)C(F)(F)C(F)(F)C(F)(F)C(F)(F)F)=C(C[n+]2ccccc2)N1.[Br-] (centres unmarked) [compound 31, 1-((3-(((5,5,6,6,7,7,8,8,9,9,10,10,11,11,12,12,12-Heptadecafluorododecyl)oxy)carbonyl)-6-oxo-4-phenyl-1,4,5,6-tetrahydropyridin-2-yl)methyl)pyridin-1-ium bromide] | – | – | – | 3 ± 0.3 µg/mL | 3 ± 0.6 µg/mL | 3 ± 1 µg/mL | 15 ± 2 µg/mL | 3 ± 0.2 µg/mL | –
9 | O=C1CC(c2ccccc2)C(C(=O)OCCCCC(F)(F)C(F)(F)C(F)(F)C(F)(F)C(F)(F)C(F)(F)C(F)(F)C(F)(F)F)=C(C[n+]2ccccc2)N1.[O-][Cl+3]([O-])([O-])[O-] (centres unmarked) [compound 32, 1-((3-(((5,5,6,6,7,7,8,8,9,9,10,10,11,11,12,12,12-Heptadecafluorododecyl)oxy)carbonyl)-6-oxo-4-phenyl-1,4,5,6-tetrahydropyridin-2-yl)methyl)pyridin-1-ium perchlorate] | – | – | – | 3 ± 0.3 µg/mL | 3 ± 0.2 µg/mL | 2 ± 0.3 µg/mL | 15 ± 3 µg/mL | 3 ± 0.5 µg/mL | –
10 | CCCCCCCCCCCC[N+](C)(C)CC1=C(C(=O)OC)C(c2ccccc2)CC(=O)N1 (centres unmarked) [compound 33, N-((3-(methyloxycarbonyl)-6-oxo-4-phenyl-1,4,5,6-tetrahydropyridin-2-yl)methyl-N,N-dimethyldodecan-1-aminium bromide] | – | – | – | 2 ± 0.4 µg/mL | 2 ± 0.6 µg/mL | 2 ± 0.1 µg/mL | 4 ± 1 µg/mL | 1 ± 0.2 µg/mL | –
11 | CCCCCCCCCCCCOC(=O)C1=C(C[N+](C)(C)CCCCCCCCCCCC)NC(=O)CC1c1ccccc1 (centres unmarked) [compound 34, N-((3-(dodecyloxycarbonyl)-6-oxo-4-phenyl-1,4,5,6-tetrahydropyridin-2-yl)methyl-N,N-dimethyldodecan-1-aminium bromide] | – | – | – | 2 ± 0.2 µg/mL | < 1 µg/mL | 3 ± 0.8 µg/mL | 6 ± 2 µg/mL | 2 ± 0.6 µg/mL | –
12 | CCCCCCCCCCCC[N+](C)(C)CC1=C(C(=O)OCCCCC(F)(F)C(F)(F)C(F)(F)C(F)(F)C(F)(F)C(F)(F)C(F)(F)C(F)(F)F)C(c2ccccc2)CC(=O)N1 (centres unmarked) [compound 35, N-((3-((5,5,6,6,7,7,8,8,9,9,10,10,11,11,12,12,12-Heptadecafluorododecyloxy)carbonyl)-6-oxo-4-phenyl-1,4,5,6-tetrahydropyridin-2-yl)methyl-N,N-dimethyldodecan-1-aminium bromide] | – | – | – | 3 ± 0.3 µg/mL | 30 ± 8 µg/mL | 26 ± 6 µg/mL | 27 ± 9 µg/mL | 30 ± 11 µg/mL | –
13 | CCCCCCCCCCCC[N+](C)(C)CC1=C(C(=O)OC)CCC(=O)N1 [compound 36, N-((3-(methyloxycarbonyl)-6-oxo-1,4,5,6-tetrahydropyridin-2-yl)methyl-N,N-dimethyldodecan-1-aminium bromide] | – | – | – | 2 ± 0.2 µg/mL | 16 ± 3 µg/mL | 18 ± 3 µg/mL | 63 ± 11 µg/mL | 1 ± 0.2 µg/mL | –
14 | CCCCCCCCCCCCOC(=O)C1=C(C[N+](C)(C)CCCCCCCCCCCC)NC(=O)CC1 [compound 37, N-((3-(dodecyloxycarbonyl)-6-oxo-1,4,5,6-tetrahydropyridin-2-yl)methyl-N,N-dimethyldodecan-1-aminium bromide] | – | – | – | 2 ± 0.5 µg/mL | 1 ± 0.2 µg/mL | 3 ± 0.6 µg/mL | 7 ± 1 µg/mL | 3 ± 0.4 µg/mL | –
15 | CCCCCCCCCCCCCCCCOC(=O)/C=C(\N)C[N+](C)(C)CCCCCCCCCCCC [compound 46, (Z,E)-N-(2-Amino-4-(hexadecyloxy)-4-oxobut-2-en-1-yl)-N,N-dimethyldodecan-1-aminium iodide] | – | – | – | – | – | – | – | – | NIH3T3 LD50 ([4]; Table 3, calculated from NIH3T3 IC50 by regression formula): 637 mg/kg; IC50 in NIH3T3 cell lines [2]: around 30 μg/ml; NIH3T3 IC50 (NR) ([2]; Table 3, 24 h exposure): 34 ± 8 µg/mL
